Common to all, as to assay: inhibition of tumour cell growth, NCI panel, 48 h
The test system of test [1] is SK-MEL-28.
In test [2] the test system is NCI-H522.
In test [3] the test system is NCI-H23.
Test [4] deals with UO-31.
In test [5] the test system is U-251.
In test [6] the test system is HCT-15.
Test [7] relates to HOP-92.
The test system of test [8] is SF-539.
Test [9] deals with OVCAR-5.
Test [10] deals with MCF7.
Test [11] concerns IGROV-1.
Test [12] concerns HT-29.
Test [13] has as its system RPMI-8226.
Test [14] relates to NCI-H460.
For test [15], the system named is UACC-62.
For test [16], the system named is HCC 2998.
Test [17] deals with COLO 205.
The test system of test [18] is EKVX.
Test [19] deals with MOLT-4.
In test [20] the test system is M14.

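Exposure lasted 48 hours, with cells grown in 96-well plates and compounds tested at five concentrations. GI50 = concentration required for 50% inhibition of growth.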 Activity calls are given as the source filed them. No stated cut-off is given here; in the data, active = GI50 up to about 1.1 µM and inactive = higher. Where only a bound is given, the exact number is not on record here.

Take `CC(NC(=O)C(C)NC(=O)C(N)CCP(C)(=O)O)C(=O)O` (configuration not stated): the GI50 in test [1] was > 100 µM (inactive); in test [2] it was > 100 µM (inactive); in test [3], > 100 µM (inactive); in test [4], > 100 µM (inactive); in test [5] it was > 100 µM (inactive); in [6], greater than 100 µM. Further, the GI50 in test [7], in test [8], in test [9], in test [10], in test [11] and in [12] was > 100 µM (inactive) each time. For the same compound, the GI50 in test [13], in test [14], in test [15], in test [16], in [17] and in [18] was > 100 µM (inactive) each time. Further, in test [19], the GI50 is > 100 µM (inactive).
Take `C=C(C)C(=O)[C@@]12C(=O)[C@@H](C)CC[C@H]1[C@H](C)C[C@@H]2C=C(C)C`: the GI50 in [1] is 34 µM (inactive); in [2], 14.6 µM (inactive); in test [3], 15.4 µM (inactive); in test [4] it was 20.2 µM (inactive); in test [5] it was 23.6 µM (inactive); in [6] it was 19.9 µM. For the same compound, the GI50 in test [7] is 25.8 µM (inactive); in test [20] it was 55.6 µM (inactive); in [8] it was 19.9 µM (inactive); in test [9], 28.4 µM (inactive); in test [10], 23.9 µM (inactive); in test [11] it was 27.5 µM (inactive). The GI50 is 14.6 µM (inactive) in [12]; 27.9 µM (inactive) in test [13]; 22.9 µM (inactive) in test [15]; 14.8 µM (inactive) in test [16]; 18.8 µM (inactive) in test [17]; 30.5 µM (inactive) in [18]. In addition, the GI50 in [19] is 15.8 µM (inactive).
Regarding `OC(c1cc(C(F)(F)F)nc2c(Cl)cc(Cl)cc12)C1CCCCN1` (configuration not stated), the GI50 was 15.3 µM (inactive) in [1]; 7.53 µM (inactive) in test [2]; 8.55 µM (inactive) in [3]; 0.906 µM (active) in test [4]; 25.4 µM (inactive) in test [5]; 13 µM in test [6]. Further, the GI50 is 7.26 µM (inactive) in test [7]; > 25.1 µM (inactive) in test [20]; 14 µM (inactive) in test [8]; > 35 µM (inactive) in test [9]; 12.5 µM (inactive) in [10]; 6.4 µM (inactive) in test [11]. Further, the GI50 in [13] was 1.95 µM (inactive); in [14], 6.82 µM (inactive); in [15] it was > 32.6 µM (inactive); in test [16], > 100 µM (inactive); in [17], 3.22 µM (inactive); in test [18], > 100 µM (inactive). The GI50 in test [19] is 6.38 µM (inactive).
With `COc1ccccc1Cc1nc(-c2ccccc2)nn(C2OC(COC(C)=O)C(OC(C)=O)C(OC(C)=O)C2OC(C)=O)c1=S` (configuration not stated), the GI50 in test [1] was 49.2 µM (inactive); in test [2], 6.5 µM (inactive); in [3], 11.2 µM (inactive); in test [4] it was > 48.2 µM (inactive); in test [5], 13.2 µM (inactive); in test [6], 21.5 µM. Moreover, the GI50 in [7] was 7.31 µM (inactive); in test [8] it was 9.14 µM (inactive); in test [9] it was > 100 µM (inactive); in test [10] it was 6.84 µM (inactive); in test [11], 31.1 µM (inactive); in test [12] it was > 48.3 µM (inactive). Moreover, the GI50 in test [13] is 21.8 µM (inactive); in test [14], > 43.9 µM (inactive); in test [15], 14.5 µM (inactive); in test [16] it was > 24.8 µM (inactive); in test [17] it was > 40.4 µM (inactive); in test [18], 25.1 µM (inactive). Also, the GI50 in test [19] is > 60 µM (inactive).
For the compound `COC(=O)c1cc2c(cc1CC(Cc1ccc3c(c1)CCC3)C(=O)OC)CCC2` (configuration not stated), the GI50 in [1] is 84.1 µM (inactive); in test [2], 22.2 µM (inactive); in test [3], 63.5 µM (inactive); in test [4], 63.7 µM (inactive); in [5] it was 50.9 µM (inactive); in [6] it was 39.2 µM. Further, the GI50 was 21 µM (inactive) in test [7]; 72.8 µM (inactive) in test [20]; 35 µM (inactive) in test [8]; 60.7 µM (inactive) in test [9]; 24.8 µM (inactive) in test [10]; > 100 µM (inactive) in test [11]. The GI50 in [12] is 26.1 µM (inactive); in test [13] it was 16.5 µM (inactive); in [14], 65.5 µM (inactive); in test [15] it was > 100 µM (inactive); in [16] it was 34.5 µM (inactive); in test [17] it was 29.5 µM (inactive). Further, the results for the GI50 in test [18] and in [19] were 27 µM (inactive) and 26.9 µM (inactive), respectively.
`CC1(O)OC(=O)C2=C1CCC1C2CCC2(C)C(O)CCC12` (configuration not stated): the GI50 in test [1] was > 100 µM (inactive); in test [2], > 100 µM (inactive); in test [3] it was > 100 µM (inactive); in test [4], > 100 µM (inactive); in test [5] it was > 100 µM (inactive); in [6], greater than 100 µM. Further, the GI50 in test [7], in test [20], in test [8], in test [9], in test [10] and in test [11] was > 100 µM (inactive) throughout. Besides, the GI50 in [12] is > 100 µM (inactive); in test [13], > 100 µM (inactive); in test [14], > 100 µM (inactive); in test [15] it was 46.3 µM (inactive); in test [16] it was > 100 µM (inactive); in test [18], > 100 µM (inactive). In [19], the GI50 was > 10 µM (inactive).
With `COC(=O)N/N=C(/CC1(O)C(=O)Nc2ccc([N+](=O)[O-])cc21)c1ccccc1` (configuration not stated), the GI50 in [1] is 23.2 µM (inactive); in test [2], 43.9 µM (inactive); in [3], 21.3 µM (inactive); in test [4] it was 40.9 µM (inactive); in test [5], 29.9 µM (inactive); in test [6], greater than 51.2 µM. In addition, the GI50 in test [7] was 33 µM (inactive); in [20], 34 µM (inactive); in test [8], 38 µM (inactive); in test [9], > 79.6 µM (inactive); in test [10], 1.19 µM (inactive); in [11], > 46.7 µM (inactive). Moreover, the GI50 is 31.4 µM (inactive) in test [12]; 44.6 µM (inactive) in test [13]; 63.8 µM (inactive) in test [14]; 24.7 µM (inactive) in test [15]; 67.1 µM (inactive) in test [16]; 50.7 µM (inactive) in test [17]. Further, the GI50 is > 54.1 µM (inactive) in test [18] and 24.5 µM (inactive) in test [19].
Consider `CC1C(=O)C(C)C(c2cccs2)N(N=O)C1c1cccs1` (configuration not stated), for which the GI50 in test [1] was > 100 µM (inactive); in test [2], 37.7 µM (inactive); in [3], > 100 µM (inactive); in [4], > 100 µM (inactive); in [5] it was > 100 µM (inactive); in test [6], greater than 100 µM. In addition, the GI50 was 68.5 µM (inactive) in test [7]; > 100 µM (inactive) in [8]; > 100 µM (inactive) in test [9]; > 100 µM (inactive) in test [10]; > 100 µM (inactive) in test [11]; > 35 µM (inactive) in test [12]. Also, the GI50 in [13], in [14], in [15], in test [16], in test [17] and in [18] was > 100 µM (inactive) throughout. Further, in [19], the GI50 is > 100 µM (inactive).
For the compound `Cc1cc(C)c(S(=O)(=O)N(CCCCN)OCCCN)c(C)c1`, the GI50 was 18.3 µM (inactive) in [1]; 16.2 µM (inactive) in test [2]; 26.9 µM (inactive) in [3]; 17.5 µM (inactive) in [4]; 15.4 µM (inactive) in test [5]; 19 µM (inactive) in test [7]. Further, the GI50 in test [20] was 18.7 µM (inactive); in test [8], 21.8 µM (inactive); in test [9], 19.5 µM (inactive); in test [10], 17.7 µM (inactive); in [11], 13.6 µM (inactive); in [12] it was 14.3 µM (inactive). Further, the GI50 in [13] was 8.04 µM (inactive); in test [14] it was 19 µM (inactive); in test [15], 16.4 µM (inactive); in test [16], 2.28 µM (inactive); in test [17] it was 9.04 µM (inactive); in [18], 16.4 µM (inactive). Also, in [19], the GI50 was 11.7 µM (inactive).
As for `CC(=O)OCC1OC(N2C(=O)NC(=O)C3C=C4CCCCC4=CC32)C(OC(C)=O)C1OC(C)=O` (configuration not stated), the GI50 in [1] was > 100 µM (inactive); in test [2] it was > 100 µM (inactive); in test [3], > 100 µM (inactive); in test [4], > 100 µM (inactive); in [5], > 100 µM (inactive); in test [6], greater than 100 µM. Moreover, the GI50 in test [7], in [20], in [8], in test [9], in test [10] and in test [11] was > 100 µM (inactive) in each case. Also, the GI50 in [13], in [14], in test [15], in test [16], in test [17] and in [18] was > 100 µM (inactive) in each case. Moreover, the GI50 in [19] was > 100 µM (inactive).

Values taken from ChEMBL document CHEMBL1201862, “PubChem BioAssay data set” (2004).
